In PubChem BioAssay (NCI):
Several values for one entry are separate records, joined by “and”; a condition that tells them apart may be missing. Equal values may be shown once.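 Cells were grown in 96-well plates and exposed to each compound for 48 hours at five concentrations; endpoints were interpolated linearly between bracketing concentrations, or set to the highest concentration if not reached. GI50 marks 50% less growth. The concentration for full growth arrest is given as TGI.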

How the values were obtained:
Experiment in all cases: inhibition of tumour cell growth, NCI panel, 48 h
A498 renal = system: A498 renal
HS 578T breast = system: HS 578T breast
M14 melanoma = system: M14 melanoma
OVCAR-4 ovarian = system: OVCAR-4 ovarian
SF-268 CNS = system: SF-268 CNS
SF-539 CNS = system: SF-539 CNS
T-47D breast = system: T-47D breast
UO-31 renal = system: UO-31 renal
CCRF-CEM leukemia = system: CCRF-CEM leukemia
OVCAR-3 ovarian = system: OVCAR-3 ovarian

SMILES | GI50 (A498 renal) [µM] | TGI (A498 renal) [µM] | GI50 (HS 578T breast) [µM] | TGI (HS 578T breast) [µM] | GI50 (M14 melanoma) [µM] | TGI (M14 melanoma) [µM] | GI50 (OVCAR-4 ovarian) [µM] | TGI (OVCAR-4 ovarian) [µM] | GI50 (SF-268 CNS) [µM] | TGI (SF-268 CNS) | GI50 (SF-539 CNS) [µM] | TGI (SF-539 CNS) | GI50 (T-47D breast) [µM] | TGI (T-47D breast) [µM] | GI50 (UO-31 renal) [µM] | TGI (UO-31 renal) | TGI (CCRF-CEM leukemia) [µM] | TGI (OVCAR-3 ovarian) [µM] | GI50 (CCRF-CEM leukemia) [µM] | GI50 (OVCAR-3 ovarian) [µM]
CCOC(=O)c1c2c(n3ccc(NC(=O)OC(C)(C)C)cc13)C(=O)c1ncccc1C2=O | 0.0339 | 4.44 | 1.21 | 4.65 | 0.0445 | 1.26 | 0.291 | 3.22 | 0.0713 | 1.91 µM | 0.118 | 0.549 µM | 0.382 | 5.31 | 0.0153 | 0.397 µM | – | – | – | –
O=c1[nH]c2ccccc2nc1/C=C(\O)C(F)F | – | > 100 | – | > 100 | – | > 100 | – | > 100 | – | > 100 µM | – | > 100 µM | – | – | – | > 100 µM | > 100 | > 100 | – | –
NC(c1ccccc1)(C(F)(F)F)P1(=O)OC(=O)c2ccccc2O1 (stereo unspecified) | – | > 100 | – | – | – | > 100 | – | > 100 | – | > 100 µM | – | > 100 µM | – | > 100 | – | > 100 µM | – | > 100 | – | –
COc1ccc(/C=C(\C(=C/c2ccc(OC)cc2)[N+](=O)[O-])[N+](=O)[O-])cc1 | – | 79 | – | 43.9 | – | 18.2 | – | 27.1 | – | 20.8 µM | – | 5.71 µM | – | 35.7 | – | 16.7 µM | – | 71.4 | – | –
O=C(c1ccccc1)c1c(C(F)(F)F)n([O-])c2cc(Cl)c(Cl)cc2[n+]1=O | – | – | – | 2.9 | – | 3.2 | – | 3.12 | – | 1.41 µM | – | 3.88 µM | – | 3.03 | – | 4.21 µM | 3.7 | 0.815 | – | –
CCN(CC)C(=S)N/N=C/c1ccccn1 | – | – | – | > 100 | – | 0.349 | – | > 100 | – | > 66.4 µM | – | 0.377 µM | – | > 100 | – | 2.1 µM | > 100 | 11 | – | –
O=C1c2ccccc2C(=O)c2c1ccc1c2N=C(c2ccc(F)cc2)CC(c2ccc(Cl)c(Cl)c2)N1 (stereo unspecified) | – | 54.9 | – | – | – | 37.7 | – | 37 | – | 32.1 µM | – | 34.9 µM | – | – | – | 23.5 µM | 17.7 | – | – | –
CC(=O)OCc1cc(=O)n(C)c2c3c4c(cc12)c(C)cc(=O)n4CO3 | – | 5.3 | – | – | – | – | – | 6.56 | – | 7.21 µM | – | 3.95 µM | – | – | – | 26.5 µM | 12.7 | 7.74 | – | –
Cc1cc(=O)n2nc(CSc3nnc(N)s3)sc2n1 | – | – | – | > 100 | – | > 100 | – | > 100 | – | > 100 µM | – | > 100 µM | – | > 100 | – | > 100 µM | > 100 | > 100 | – | –
O=c1[nH]c(=O)n(COCc2ccccc2)c2ccc(Br)cc12 | – | > 100 | – | – | – | > 100 | – | > 100 | – | – | – | > 100 µM | – | – | – | > 100 µM | > 100 | > 100 | – | –
S=C1C(=Nc2ccccc2)N(c2ccccc2)/C(=N\c2ccccn2)N1c1ccccc1 | – | 30.4 | – | 39.5 | – | – | – | 29.5 | – | 31.4 µM | – | 20.9 µM | – | 41.5 | – | 26.1 µM | > 100 | – | – | –
O=c1[nH]c(=O)n(COCc2ccccc2)c2ccc([N+](=O)[O-])cc12 | – | > 100 | – | – | – | > 100 | – | > 100 | – | – | – | > 100 µM | – | – | – | > 100 µM | > 100 | > 100 | – | –
Cc1ccc(C)c(COCCOCn2cc(Br)c(N)nc2=O)c1 | – | > 100 | – | > 100 | – | > 100 | – | – | – | > 100 µM | – | > 100 µM | – | > 100 | – | > 100 µM | > 100 | > 100 | – | –
CCOC(=O)C(NC(=O)CC(C)C)(Nc1ccc(C(F)(F)F)cc1)C(F)(F)F (stereo unspecified) | – | – | – | > 100 | – | > 100 | – | > 100 | – | > 100 µM | – | > 100 µM | – | 81.8 | – | > 100 µM | > 100 | > 100 | – | –
Cc1cc(NS(=O)(=O)c2ccc(NC(=O)c3cccc4c(NNc5ccc(S(=O)(=O)N=C(N)N)cc5)c5ccccc5nc34)cc2)no1 | – | – | – | > 100 | – | > 100 | – | > 100 | – | > 100 µM | – | > 100 µM | – | > 100 | – | > 100 µM | 82.3 | > 100 | – | –
Nc1ccccc1NC(=O)CCCCCCC(=O)Nc1ccc2c(c1)/C(=C/c1ccc[nH]1)C(=O)N2 | 3.17 | > 100 | 47.6 | > 100 | 69.2 | > 100 | – | – | 6.64 | > 100 µM | 1.32 | > 100 µM | 3.67 | > 100 | 2.21 | > 100 µM | > 100 | > 100 | 0.419 | 5.42
O=C(Nc1nnc(-c2ccccc2)o1)C(SC(=S)N1CCOCC1)c1ccccc1 (stereo unspecified) | – | 89.6 | – | > 100 | – | > 100 | – | > 100 | – | – | – | > 100 µM | – | > 100 | – | > 100 µM | > 100 | 79.7 | – | –
CN(C)CCCNc1c2ccccc2nc2cccc([N+](=O)[O-])c12 | – | 0.00198 | – | 0.0148 | – | 0.00165 | – | < 0.001 | – | 0.00943 µM and 0.0426 µM | – | 0.00757 µM and 0.0252 µM | – | – | < 0.001 | 0.0107 µM and 0.0363 µM | 0.196 | 0.0673 | 0.029 | –
CC(=O)NC1C(OCc2ccccc2)OC(CO)C(O)C1OCC(=O)NC(C)C(=O)NC(CCC(=O)NCCCCCNc1c2ccccc2nc2cccc([N+](=O)[O-])c12)C(N)=O (stereo unspecified) | – | < 0.0001 | – | – | – | < 0.0001 | – | 0.00615 | – | < 0.0001 µM | – | 0.00116 µM | – | – | – | – | – | – | – | –
S=c1nc2[nH]c3ccc(Br)cc3c2n[nH]1 | – | > 100 | – | > 100 | – | > 100 | – | > 100 | – | > 100 µM | – | > 100 µM | – | > 100 | – | > 100 µM | – | > 100 | – | –
COC(=O)c1nc(-c2ccc3c(n2)C(=O)C(N)=C(OC)C3=O)c(N)c(-c2ccc(OC)c(OC)c2O)c1C | – | 3.17 | – | – | – | – | – | 3.06 | – | 5.25 µM | – | 1.39 µM | – | – | – | 2.46 µM | > 100 | 1.66 | – | –
